What all share (test): relative viability (nuclei count vs DMSO), 5 days (fraction); higher = more cells survive
Compound in the experiment “Midostaurin + Tozasertib”: CO[C@@H]1[C@H](N(C)C(=O)c2ccccc2)C[C@H]2O[C@]1(C)n1c3ccccc3c3c4c(c5c6ccccc6n2c5c31)C(=O)NC4 [Midostaurin] + Cc1cc(Nc2cc(N3CCN(C)CC3)nc(Sc3ccc(NC(=O)C4CC4)cc3)n2)n[nH]1 [Tozasertib] (partner 0.1 µM)
In outline: (§1)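 One day after seeding in 1536-well plates, lung cancer cell lines were dosed by pin tool. Dosing was either single-drug or a fixed anchor-drug dose plus five library-drug doses (not always all listed) in √10 steps. After 5 days, nuclei were stained in one fix-and-stain step and counted on 4× images, and relative viability is the nuclei count of treated wells over that of vehicle wells, given as the median of duplicate plates.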

Compound in experiment [1]: COc1cc(-c2nn([C@H]3CC[C@H](N4CCN(C(C)=O)CC4)CC3)c3ncnc(N)c23)ccc1NC(=O)c1cc2ccccc2n1C + COc1cccc2cc(-c3nc([C@H]4CC[C@H](C(=O)O)CC4)n4ncnc(N)c34)[nH]c12 [OSI-027] (partner 0.5 µM)
In outline: as §1

Compound in experiment [2]: CO[C@@H]1[C@H](N(C)C(=O)c2ccccc2)C[C@H]2O[C@]1(C)n1c3ccccc3c3c4c(c5c6ccccc6n2c5c31)C(=O)NC4 [Midostaurin] + CC(=O)c1c(C)c2cnc(Nc3ccc(N4CCNCC4)cn3)nc2n(C2CCCC2)c1=O [Palbociclib] (partner 0.5 µM)
In a few lines: as §1

Compound in experiment [3]: COc1cc(-c2nn([C@H]3CC[C@H](N4CCN(C(C)=O)CC4)CC3)c3ncnc(N)c23)ccc1NC(=O)c1cc2ccccc2n1C
In outline: (§2)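 MetaXpress counted nuclei in 4× images of lung cancer cell lines that had been fixed, permeabilised and Hoechst-stained in one step. Before that, cells in 1536-well plates were kept overnight at 37 °C, pinned with five √10-spaced library-drug doses on vehicle-anchored plates, and cultured 5 days without medium change. Viability takes treated-well nuclei over vehicle-well nuclei and uses the median across plates. Plates were accepted only at control CV below 25% and at least one doubling.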

Compound in a further experiment: CO[C@@H]1[C@H](N(C)C(=O)c2ccccc2)C[C@H]2O[C@]1(C)n1c3ccccc3c3c4c(c5c6ccccc6n2c5c31)C(=O)NC4 [Midostaurin]
In outline: as §2

UMC-11: the relative viability with Midostaurin + Tozasertib (first compound 0.01 µM) stood at 0.208; in the experiment with Midostaurin + Tozasertib (first compound 0.03162 µM), 0.18; in the experiment with Midostaurin + Tozasertib (first compound 0.1 µM), 0.196; with Midostaurin + Tozasertib (first compound 0.3162 µM), 0.174; in experiment [1] (first compound 0.0128 µM) it was 0.531; in experiment [1] (first compound 0.04048 µM) it was 0.463. For the same cell line, the relative viability stood at 0.474 in experiment [1] (first compound 0.128 µM); 0.414 in experiment [1] (first compound 1.28 µM); 0.352 in experiment [2] (first compound 0.01 µM); 0.391 in experiment [2] (first compound 0.03162 µM); 0.364 in experiment [2] (first compound 0.1 µM); 0.284 in experiment [2] (first compound 0.3162 µM). In addition, the relative viability in experiment [3] (0.0128 µM) amounted to 1.04; in experiment [3] (0.04048 µM), 0.955; in experiment [3] (0.128 µM) it was 0.927; in experiment [3] (1.28 µM) it was 0.84; in the experiment with Midostaurin (0.01 µM), 0.984; with Midostaurin (0.03162 µM) it was 0.901. The relative viability came to 1 with Midostaurin (0.1 µM) and 0.617 with Midostaurin (0.3162 µM).
